We go through 14 molecules from patent US20240189318A1, “THERAPEUTIC REGIMENS OF AN INHIBITOR OF THE ENZYMATIC ACTIVITY OF BRG1 AND BRM” (FOGHORN THERAPEUTICS INC., priority 2021, published 2024).

Series [1] concerns Uveal melanoma cell lines, 92-1 or MP41. The series is described as follows: 3-day growth inhibition, Compound A compared with clinical PKC and MEK inhibitors. Format: cell-based.
Series [2] shares this test system. As to the kind of experiment: 3-day growth inhibition, Compound B compared with clinical PKC and MEK inhibitors. It counts as cell-based.
In series [3] the test system is Uveal melanoma cell lines (92-1, MP41, MP38, MP46) and non-small cell lung cancer cells (NCIH1299). The series is described as follows: 3-day growth inhibition, Compound B. Format: cell-based. The conditions noted are these: 92-1, MP41, MP38, MP46, NCIH1299; 3 days, 0 to 10 μM.
The next series concerns the target CYP2C19 (Homo sapiens, UniProt P33261). As to the kind of experiment: Selective chemical inhibition of compound of formula (I) depletion in human liver microsomes, CYP2C19. It counts as in vitro ADME. On the set-up: from tissue; host or cells: human liver microsomes. The following applies: human, human liver microsomes, probe compound of formula (I) (depletion); Time-dependent inhibitor; targeted CYP 2C19; inhibitor 10 μM.

In a further series the target is T1, CYP1A2 (Homo sapiens, UniProt P05177).
T1 sequence (P05177 1-516): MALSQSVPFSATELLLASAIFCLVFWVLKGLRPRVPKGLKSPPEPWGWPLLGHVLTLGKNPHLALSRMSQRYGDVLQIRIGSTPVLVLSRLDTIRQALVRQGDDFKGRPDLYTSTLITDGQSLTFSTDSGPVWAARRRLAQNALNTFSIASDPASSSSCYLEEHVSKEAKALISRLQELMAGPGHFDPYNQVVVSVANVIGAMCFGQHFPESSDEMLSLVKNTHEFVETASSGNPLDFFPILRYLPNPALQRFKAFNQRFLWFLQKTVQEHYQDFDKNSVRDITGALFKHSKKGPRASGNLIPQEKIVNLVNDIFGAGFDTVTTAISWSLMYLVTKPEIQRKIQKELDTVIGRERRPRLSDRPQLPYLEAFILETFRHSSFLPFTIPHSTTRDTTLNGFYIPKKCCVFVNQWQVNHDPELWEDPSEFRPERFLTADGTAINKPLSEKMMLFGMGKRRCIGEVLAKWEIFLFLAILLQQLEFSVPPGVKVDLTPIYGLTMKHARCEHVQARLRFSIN
As to the kind of experiment: in vitro.

In the next series the target is T2, 2C8 (Homo sapiens, UniProt P10632).
T2 construct: from tissue; host or cells: human liver microsomes
T2 sequence (P10632 whole entry): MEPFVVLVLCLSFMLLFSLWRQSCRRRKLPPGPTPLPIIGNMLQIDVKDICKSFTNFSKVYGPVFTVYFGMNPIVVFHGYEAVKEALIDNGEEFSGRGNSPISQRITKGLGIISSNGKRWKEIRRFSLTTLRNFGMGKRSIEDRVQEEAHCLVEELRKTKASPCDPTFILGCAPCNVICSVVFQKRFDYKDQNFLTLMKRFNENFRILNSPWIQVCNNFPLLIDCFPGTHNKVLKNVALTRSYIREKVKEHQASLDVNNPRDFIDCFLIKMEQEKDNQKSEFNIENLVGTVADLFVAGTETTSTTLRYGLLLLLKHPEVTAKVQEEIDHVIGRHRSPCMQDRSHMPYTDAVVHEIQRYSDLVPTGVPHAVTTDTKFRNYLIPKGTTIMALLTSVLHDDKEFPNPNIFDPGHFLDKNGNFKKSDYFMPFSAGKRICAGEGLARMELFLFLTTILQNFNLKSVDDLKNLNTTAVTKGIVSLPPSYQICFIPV
As to the kind of experiment: Selective chemical inhibition of compound of formula (I) depletion in human liver microsomes, CYP2C8. The conditions noted are these: Time-dependent inhibitor; targeted CYP 2C8; inhibitor 100 μM. It counts as in vitro ADME. A general note: Liver microsomes are vesicles of endoplasmic reticulum, rich in cytochrome P450 enzymes.

The subject of the next series is CYP3A4/5. The series is described as follows: Selective chemical inhibition of compound of formula (I) depletion in human liver microsomes, CYP3A4/5. The conditions noted are these: human.
For series [4], the system named is parental MP41 cells and PKC inhibitor (PKCl)-resistant cells. The series is described as follows: 7-day growth inhibition assay, parental and PKC inhibitor-resistant cells. Format: cell-based. The following applies: 7-day assay.
The target in another series is T3, CYP2A6 (Homo sapiens, UniProt P11509).
T3 construct: from tissue; host or cells: human liver microsomes
T3 sequence (P11509 whole entry): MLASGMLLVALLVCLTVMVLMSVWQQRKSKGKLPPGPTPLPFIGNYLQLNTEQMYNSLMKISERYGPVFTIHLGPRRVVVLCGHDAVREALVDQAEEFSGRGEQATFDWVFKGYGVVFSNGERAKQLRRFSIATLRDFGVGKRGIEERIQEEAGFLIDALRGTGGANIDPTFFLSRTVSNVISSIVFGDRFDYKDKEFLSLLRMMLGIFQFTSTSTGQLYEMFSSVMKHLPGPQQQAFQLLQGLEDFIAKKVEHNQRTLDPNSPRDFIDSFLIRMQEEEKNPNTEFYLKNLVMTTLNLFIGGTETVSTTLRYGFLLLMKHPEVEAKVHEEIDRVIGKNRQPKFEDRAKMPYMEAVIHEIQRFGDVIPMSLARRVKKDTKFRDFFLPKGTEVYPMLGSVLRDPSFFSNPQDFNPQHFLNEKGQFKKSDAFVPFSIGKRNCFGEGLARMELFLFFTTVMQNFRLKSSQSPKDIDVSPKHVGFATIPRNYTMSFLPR
The series is described as follows: Selective chemical inhibition of compound of formula (I) depletion in human liver microsomes, CYP2A6. The conditions noted are these: probe compound of formula (I) (depletion), Direct inhibitor, targeted CYP 2A6, inhibitor 10 μM. Format: in vitro ADME.

A further series relates to CYP1A2 enzyme activity. As to the kind of experiment: CYP enzyme activity in cultured human hepatocytes, CYP1A2. It counts as in vitro ADME. The conditions noted are these: 50 μM, range from three donors.
The subject of the next series is CYP1A2 mRNA. As to the kind of experiment: CYP mRNA level (qRT-PCR) in cultured human hepatocytes, CYP1A2. The following applies: 50 μM, range of fold change observed from three donors. (In general: Quantitative PCR measures a nucleic acid by following its amplification.)
Another series has as its target T4, CYP2B6 (Homo sapiens, UniProt P20813).
T4 sequence (P20813 1-491): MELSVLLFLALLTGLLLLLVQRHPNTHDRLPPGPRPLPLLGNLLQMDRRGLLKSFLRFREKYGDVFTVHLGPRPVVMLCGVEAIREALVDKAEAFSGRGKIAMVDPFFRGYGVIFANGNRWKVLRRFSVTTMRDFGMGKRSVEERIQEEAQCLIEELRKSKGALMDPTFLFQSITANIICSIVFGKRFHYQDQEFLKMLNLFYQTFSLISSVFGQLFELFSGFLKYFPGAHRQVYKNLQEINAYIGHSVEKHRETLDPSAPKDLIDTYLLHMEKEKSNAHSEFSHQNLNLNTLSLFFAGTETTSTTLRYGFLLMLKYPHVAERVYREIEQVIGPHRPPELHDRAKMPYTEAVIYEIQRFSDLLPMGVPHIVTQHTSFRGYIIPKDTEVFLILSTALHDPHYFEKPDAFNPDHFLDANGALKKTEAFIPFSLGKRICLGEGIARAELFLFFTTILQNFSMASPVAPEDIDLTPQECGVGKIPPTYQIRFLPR
The series is described as follows: Selective chemical inhibition of compound of formula (I) depletion in human liver microsomes, CYP2B6. The following applies: probe compound of formula (I) (depletion), Time-dependent inhibitor, targeted CYP 2B6, inhibitor 30 μM. On the set-up: from tissue; host or cells: human liver microsomes. Format: in vitro ADME.

Another series has as its system CYP2B6 mRNA. The series is described as follows: CYP mRNA level (qRT-PCR) in cultured human hepatocytes, CYP2B6. The following applies: CYP2B6; 1000 μM; range from three donors.
The test system of the next series is CYP2B6 activity. As to the kind of experiment: CYP enzyme activity in cultured human hepatocytes, CYP2B6. It counts as in vitro ADME. The conditions noted are these: 1000 μM, range from three donors.
Another series concerns the target 2D6 (Homo sapiens, UniProt P10635). As to the kind of experiment: Selective chemical inhibition of compound of formula (I) depletion in human liver microsomes, CYP2D6. The following applies: Direct inhibitor; targeted CYP 2D6; inhibitor 5 μM.
In the next series the test system is CYP2C19 mRNA. The series is described as follows: CYP mRNA level in cultured human hepatocytes, CYP2C19. It counts as in vitro ADME. The following applies: CYP2C19; 20 μM; range from three donors.
The target in the next series is CYP2C9 (Homo sapiens, UniProt P11712). As to the kind of experiment: in vitro.
Chain of CYP2C9 (P11712 whole entry): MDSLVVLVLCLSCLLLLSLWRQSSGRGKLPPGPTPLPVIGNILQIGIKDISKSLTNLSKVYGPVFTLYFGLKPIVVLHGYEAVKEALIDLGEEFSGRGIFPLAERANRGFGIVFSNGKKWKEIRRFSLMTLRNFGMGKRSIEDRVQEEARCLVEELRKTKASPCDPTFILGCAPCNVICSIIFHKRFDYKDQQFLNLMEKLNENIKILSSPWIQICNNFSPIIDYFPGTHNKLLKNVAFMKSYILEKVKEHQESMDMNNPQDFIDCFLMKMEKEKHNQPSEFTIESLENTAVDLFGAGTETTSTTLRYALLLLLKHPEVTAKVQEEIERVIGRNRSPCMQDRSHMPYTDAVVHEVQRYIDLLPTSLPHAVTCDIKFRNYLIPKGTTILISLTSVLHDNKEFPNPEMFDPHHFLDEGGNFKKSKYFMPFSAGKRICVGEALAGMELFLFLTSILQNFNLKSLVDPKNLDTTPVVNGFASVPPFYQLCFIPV

Chain of CYP2C19 (P33261 whole entry): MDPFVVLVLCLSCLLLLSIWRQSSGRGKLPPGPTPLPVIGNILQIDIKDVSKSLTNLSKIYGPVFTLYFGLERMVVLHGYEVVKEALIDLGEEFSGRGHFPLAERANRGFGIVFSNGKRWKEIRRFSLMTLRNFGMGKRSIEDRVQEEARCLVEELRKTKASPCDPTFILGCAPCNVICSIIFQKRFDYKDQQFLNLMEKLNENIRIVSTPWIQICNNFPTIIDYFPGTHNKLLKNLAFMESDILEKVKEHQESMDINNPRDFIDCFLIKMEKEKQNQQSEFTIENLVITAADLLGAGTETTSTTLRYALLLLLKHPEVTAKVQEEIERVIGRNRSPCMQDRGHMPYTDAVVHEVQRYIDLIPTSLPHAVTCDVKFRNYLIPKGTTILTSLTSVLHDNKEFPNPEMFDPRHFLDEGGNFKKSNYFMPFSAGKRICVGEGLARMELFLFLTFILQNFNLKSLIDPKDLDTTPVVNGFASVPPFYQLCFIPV
Chain of 2D6 (P10635 whole entry): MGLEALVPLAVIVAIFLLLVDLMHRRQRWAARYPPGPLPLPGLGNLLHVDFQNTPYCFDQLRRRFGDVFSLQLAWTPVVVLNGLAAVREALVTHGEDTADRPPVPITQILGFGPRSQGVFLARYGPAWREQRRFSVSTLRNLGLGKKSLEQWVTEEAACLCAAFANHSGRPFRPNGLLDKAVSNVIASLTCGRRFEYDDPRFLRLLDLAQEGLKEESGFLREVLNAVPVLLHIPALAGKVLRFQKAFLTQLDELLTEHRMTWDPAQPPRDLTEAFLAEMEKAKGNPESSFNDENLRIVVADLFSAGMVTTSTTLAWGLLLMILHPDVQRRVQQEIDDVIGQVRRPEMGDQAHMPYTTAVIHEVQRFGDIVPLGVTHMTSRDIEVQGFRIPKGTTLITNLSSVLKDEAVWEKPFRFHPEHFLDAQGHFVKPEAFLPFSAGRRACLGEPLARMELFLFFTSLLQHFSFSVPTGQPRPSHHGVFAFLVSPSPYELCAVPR

Regarding `CSCC[C@H](NC(=O)c1ccc(N)cc1)C(=O)Nc1nc(-c2cccc(-c3ccncc3)c2)cs1` [Compound A], the “onset of inhibition versus clinical PKC and MEK inhibitors” value in series [1] (92-1 or MP41) is reported as “faster onset of inhibition”. Besides, in [1] (92-1 or MP41, 3 days, 0 to 10 μM, vs LXS196 and selumetinib), the “growth inhibition of uveal melanoma cells versus clinical PKC and MEK inhibitors” value was “comparable growth inhibition”. Turning to `CSCC[C@H](NC(=O)c1ccn(S(C)(=O)=O)c1)C(=O)Nc1nc(-c2cccc(-c3ccncc3)c2)cs1` [Compound B], in [2] (92-1 or MP41), the “onset of growth inhibition versus clinical PKC and MEK inhibitors” value is recorded as “faster onset of growth inhibition”. Besides, the “growth inhibition of uveal melanoma cells versus clinical PKC and MEK inhibitors” value in series [2] (92-1 or MP41, 3 days, vs LXS196 and selumetinib) was “more potent effects on growth inhibition”. Also, the “growth inhibition in the cell lines” value in series [3] was “potent growth inhibition”. A word on the inhibition: it is how much of the control response was suppressed. A higher inhibition goes with strong suppression. At CYP2C19, `COc1ccc2nc([S@@+]([O-])Cc3ncc(C)c(OC)c3C)[nH]c2c1` [Esomeprazole, reference compound] registered an inhibition at 10 µM of 27.1%. For the molecule `Cc1nc2c([nH]1)c(=O)n(C)c(=O)n2Cc1ccco1` [Furafylline], on CYP1A2, the inhibition at 10 µM was 1.9%.

As to `Cc1ccc(C)c(OCCCC(C)(C)C(=O)O[C@@H]2O[C@H](C(=O)O)[C@@H](O)[C@H](O)[C@H]2O)c1` [Gemfibrozil glucuronide], at 2C8, the “% Inhibition of compound of formula (I) depletion in human liver microsomes” value is “No”. In the case of `CC(=O)N1CCN(c2ccc(OCC3COC(Cn4ccnc4)(c4ccc(Cl)cc4Cl)O3)cc2)CC1` (stereo not shown) [Ketoconazole, reference compound], in the series with CYP3A4/5, at 1 µM the inhibition was 83.3%.

`CC1(N)CCN(c2cccnc2NC(=O)c2nc(-c3ncccc3C(F)(F)F)cnc2N)CC1` [LXS196]: in series [4], the “sensitivity of PKCl-resistant cells relative to parental MP41 cells” value was “could tolerate growth at higher concentrations”. On CYP2A6, `N#Cc1ccc(C(c2ccc(C#N)cc2)n2cncn2)cc1` [Letrozole] displayed an inhibition at 10 µM of 9.1%. Consider `COc1ccc2[nH]c([S+]([O-])Cc3ncc(C)c(OC)c3C)nc2c1` (stereo not shown) [Omeprazole, reference compound], for which the “Positive Control Enzyme Activity Fold Change” value with CYP1A2 enzyme activity is 20.0-93.9. Moreover, the “Positive Control mRNA Fold Change” value in the series on CYP1A2 mRNA is on record as 50.2-118.

At CYP2B6, `c1ccc(C2(N3CCCCC3)CCCCC2)cc1` [Phencyclidine] displayed an inhibition at 30 µM of 5.7%. For the molecule `CCC1(c2ccccc2)C(=O)NC(=O)NC1=O` [Phenobarbital, reference compound], in the series with CYP2B6 mRNA, the “Positive Control mRNA Fold Change” value was 15.3-39.6. The “Positive Control Enzyme Activity Fold Change” value in the series on CYP2B6 activity is on record as 11.9-16.7.

Turning to `C=C[C@H]1C[N@@]2CC[C@H]1C[C@@H]2[C@@H](O)c1ccnc2ccc(OC)cc12` [Quinidine], on 2D6, the “% Inhibition of compound of formula (I) depletion in human liver microsomes” value is reported as “No”. In the case of `CO[C@H]1/C=C/O[C@@]2(C)Oc3c(C)c(O)c4c(O)c(c(/C=N/N5CCN(C)CC5)c(O)c4c3C2=O)NC(=O)/C(C)=C\C=C\[C@H](C)[C@H](O)[C@@H](C)[C@@H](O)[C@@H](C)[C@H](OC(C)=O)[C@@H]1C` [Rifampin, reference compound], the “Positive Control mRNA Fold Change” value in the series with CYP2C19 mRNA is 0.61-1.01. Turning to `O=C(O)COc1ccc(C(=O)c2cccs2)c(Cl)c1Cl` [Tienilic acid], the inhibition at 20 µM on CYP2C9 was found to be 2.4%.
